Source: patent publication US20120122727A1, “IN VITRO METHOD FOR PREDICTING WHETHER A COMPOUND IS GENOTOXIC IN VIVO” (priority 2009, published 2012)
Where two headings read alike, the source gives them in different places.

Key:
[1] = cited from earlier work
[2] = system: primary mouse hepatocytes; assay: Class prediction true GTX vs false GTX by PAM from hepatocyte gene expression
Experimental: PAM uses gene expression data to calculate the shrunken centroid for each class and identifies the specific genes that determine the centroid most. Based on the nearest shrunken centroid, PAM is also capable of predicting to which class an unknown sample belongs (27). Class prediction was performed after 24 h and 48 h of exposure.
For this analysis, the gene list with differentially expressed probe sets was used. For each exposure period, 3 sets of genes (classifiers) were generated by PAM, using all ten treatments, based on the smallest estimated misclassification error rate (generated by 10-fold cross-validation) and a >80% predicted test probability. This was done by using 2 experiments as training set and the third experiment for validation. This was done for all 3 possible combinations, each time leaving out another experiment. For each time point, the classifiers that were in common between the three training sets, were set as the final classifier set for that time point
For the purpose of validating the class discrimination models with the final classifier sets, gene expression data were generated for two additional true GTX compounds, phenacetin and DMBA, and for three False GTX compounds, cur, ethylacrylate and resorcinol and the vehicle control for exposure periods of 24 and 48 h.

Row | Prediction 24 h Exp 1 [2] | Prediction 24 h Exp 2 [2] | Prediction 24 h Exp 3 [2] | Prediction 48 h Exp 1 [2] | Prediction 48 h Exp 2 [2] | Prediction 48 h Exp 3 [2] | class prediction (true GTX / false GTX) [2] | predicted test probability ([2]; mouse) | Compound | Genotoxic class ([1]; in vivo) | class prediction (true GTX / false GTX) ([2]; 24 h exposure, independent triplicate treatments) | class prediction (true GTX / false GTX) ([2]; 48 h exposure, independent triplicate treatments) | Prediction 24 h Exp 1 ([2]; PAM class prediction, 24 h, Exp 1) | Prediction 24 h Exp 2 ([2]; PAM class prediction, 24 h, Exp 2) | Prediction 24 h Exp 3 ([2]; PAM class prediction, 24 h, Exp 3) | Prediction 48 h Exp 1 ([2]; PAM class prediction, 48 h, Exp 1) | Prediction 48 h Exp 2 ([2]; PAM class prediction, 48 h, Exp 2) | Prediction 48 h Exp 3 ([2]; PAM class prediction, 48 h, Exp 3) | predicted test probability ([2]; both time points (24 and 48 h)) | Genotoxic class ([1]; known class of the validation compound (GTX = true GTX, FP-GTX = false GTX))
1 | – | – | – | – | – | – | – | – | C=CC(=O)OCC [ethylacrylate] | FP-GTX | classified correctly | classified correctly | FP-GTX | FP-GTX | FP-GTX | FP-GTX | FP-GTX | FP-GTX | 100% | –
2 | FP-GTX | FP-GTX | FP-GTX | FP-GTX | FP-GTX | FP-GTX | classified correctly | 100% | Oc1cccc(O)c1 [resorcinol] | – | – | – | – | – | – | – | – | – | – | FP-GTX
